Where two headings read alike, the source gives them in different places.
Assays:
[1] = system: nAChR subtypes mediating nicotine-evoked [^3H]-dopamine overflow
Description: [^3H]-Dopamine overflow from superfused striatal slices. […] Striatal coronal slices (500 μm, 4-6 mg) were obtained and incubated for 30 minutes in Krebs' buffer (in mM: 118 NaCl, 4.7 KCl, 1.2 MgCl2, 1 NaH2PO4, 1.3 CaCl2, 11.1 glucose, 25 NaHCO3, 0.11 L-ascorbic acid and 0.004 disodium EDTA, pH 7.4, saturated with 95% O2/5% CO2) in a metabolic shaker at 34° C. Slices were incubated with 0.1 μM (final concentration) of [^3H]-dopamine during the latter 30 minutes of the 60-minute incubation period. Each slice was transferred to a glass superfusion chamber maintained at 34° C. and superfused (1 ml/min) with Krebs' buffer containing nomifensine (10 μM) and pargyline (10 μM) to inhibit [^3H]-dopamine reuptake after release into the extracellular space, ensuring that [^3H]-overflow primarily represented [^3H]-dopamine. Sample collection (5-minute; 5 mL) began after 60 minutes of superfusion. […] At the end of the experiment, each slice was solubilized, and the [^3H]-content of the tissue determined. Release during each minute was normalized for total tissue [^3H]-content. Analog-induced intrinsic activity and inhibitory activity were determined using slices from the same rat (repeated-measures design).
The amount of [^3H] in each sample was calculated by dividing the total [^3H] collected in each sample by the total in the tissue at the time of sample collection (defined as fractional release). […] Data were analyzed by weighted, least squares regression analysis of the sigmoidal concentration-effect curves to obtain EC50 and IC50 values.
Striatal slices (500 μm, 4-6 mg) were incubated for 30 minutes in Krebs' buffer (in mM: 118 NaCl, 4.7 KCl, 1.2 MgCl2, 1 NaH2PO4, 1.3 CaCl2, 11.1 glucose, 25 NaHCO3, 0.11 L-ascorbic acid and 0.004 disodium EDTA, pH 7.4, saturated with 95% O2/5% CO2) in a metabolic shaker at 34° C. Slices were incubated with 0.1 μM (final concentration) [^3H]DA during the latter 30 minutes of the 60-minute incubation period. Each slice was transferred to a glass superfusion chamber maintained at 34° C. and superfused (1 ml/min) with Krebs' buffer containing nomifensine (10 μM) and pargyline (10 μM) to inhibit [^3H]DA reuptake and metabolism, respectively, after release into the extracellular space, ensuring that [^3H]overflow primarily represents [^3H]DA. Sample collection (5-minute; 5 ml) began after 60 minutes of superfusion. […] Thus, the ability of these analogs to elicit intrinsic activity (evoke [^3H]DA overflow) was determined. At the end of the experiment, each slice was solubilized and [^3H]content of the tissue determined. Release during each minute was normalized for total [^3H]content of the slice. Analog-induced intrinsic activity and inhibitory activity were determined using slices from the same rat (repeated-measures design).
Fractional release was calculated by dividing the total tritium collected in each sample by the total tritium in the tissue at the time of sample collection. […] Typically, data were analyzed by weighted, least squares regression analysis of sigmoidal concentration-effect curves to obtain EC50 and IC50 values.

[2] = system: nAChR subtypes mediating nicotine-evoked DA release; experiment: Analog-evoked [^3H]DA overflow (intrinsic activity) from superfused striatal slices; format: cell-based, rat
[3] = target: T1, Rat Striatal Nicotinic Acetylcholine Receptors ([^3H]nicotine binding sites) (Rattus norvegicus, UniProt P09483+P12390); experiment: biochemical; conditions: read-out: Ki, specific binding of [^3H]-nicotine
T1 construct: Striata from two rats were dissected, pooled, and homogenized; from tissue; host or cells: rat striatum membranes
T1 sequence (P09483 31-630): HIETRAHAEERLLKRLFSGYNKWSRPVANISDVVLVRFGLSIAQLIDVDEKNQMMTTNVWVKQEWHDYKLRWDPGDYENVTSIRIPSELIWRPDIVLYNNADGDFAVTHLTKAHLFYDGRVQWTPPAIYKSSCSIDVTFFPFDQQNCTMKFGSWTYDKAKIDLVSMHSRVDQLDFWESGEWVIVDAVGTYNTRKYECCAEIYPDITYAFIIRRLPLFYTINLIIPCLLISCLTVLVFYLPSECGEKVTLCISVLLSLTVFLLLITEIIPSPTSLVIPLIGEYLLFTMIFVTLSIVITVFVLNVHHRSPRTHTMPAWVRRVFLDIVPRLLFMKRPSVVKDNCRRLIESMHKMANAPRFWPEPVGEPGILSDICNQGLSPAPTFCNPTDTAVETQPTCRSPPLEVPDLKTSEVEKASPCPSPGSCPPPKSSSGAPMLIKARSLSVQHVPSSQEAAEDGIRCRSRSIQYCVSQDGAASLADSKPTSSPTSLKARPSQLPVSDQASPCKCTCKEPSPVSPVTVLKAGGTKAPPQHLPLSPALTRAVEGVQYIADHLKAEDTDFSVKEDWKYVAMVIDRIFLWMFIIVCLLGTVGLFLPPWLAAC
T1 sequence (P12390 25-500): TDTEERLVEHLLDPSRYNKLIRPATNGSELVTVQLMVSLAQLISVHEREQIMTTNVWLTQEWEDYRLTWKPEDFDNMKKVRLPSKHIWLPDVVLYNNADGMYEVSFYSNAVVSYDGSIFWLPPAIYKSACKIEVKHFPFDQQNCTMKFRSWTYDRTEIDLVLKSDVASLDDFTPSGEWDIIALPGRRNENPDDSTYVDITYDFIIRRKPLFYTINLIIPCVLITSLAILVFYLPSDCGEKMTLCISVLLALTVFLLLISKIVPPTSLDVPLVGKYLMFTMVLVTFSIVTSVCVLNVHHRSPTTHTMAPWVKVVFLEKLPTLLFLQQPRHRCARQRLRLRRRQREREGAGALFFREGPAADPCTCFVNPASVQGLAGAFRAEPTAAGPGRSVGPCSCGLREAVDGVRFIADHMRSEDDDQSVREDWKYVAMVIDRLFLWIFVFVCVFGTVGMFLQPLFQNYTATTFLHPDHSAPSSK
Description: Striata from two rats were dissected, pooled, and homogenized with a Tekmar polytron in 10 volumes of ice-cold modified Krebs-HEPES buffer (20 mM HEPES, 118 mM NaCl, 4.8 mM KCl, 2.5 mM CaCl2, 1.2 mM MgSO4, adjusted to pH 7.5). The homogenates were incubated at 37° C. for five minutes and centrifuged at 15,000 g for 20 minutes. The pellet was resuspended in ten volumes of ice-cold MilliQ water, incubated for five minutes at 37° C., and centrifuged at 15,000 g for 20 minutes The second pellet was then resuspended in ten volumes of fresh ice-cold 10% Krebs-HEPES buffer, incubated at 37° C., and centrifuged at 15,000 g for 20 minutes. The latter sequence of resuspension, incubation, and centrifugation was repeated. The pellet was frozen under fresh 10% Krebs-HEPES buffer and stored at −40° C. until assay. Upon assay, the pellet was resuspended in the Krebs-HEPES buffer, incubated at 37° C. for five minutes, and centrifuged at 15,000 g for 20 minutes. The final pellet was resuspended in 3.6 ml ice-cold MilliQ water which provided for approximately 200 μg protein per 100 μl aliquot. Competition assays were performed in duplicate in a final volume of 200 μl Krebs-HEPES buffer containing […] Tris buffer (pH 7.5 at 4° C.). […] After a 90 minute incubation at 4° C., reactions were terminated by dilution of the samples with 3 ml of ice-cold Krebs-HEPES buffer followed immediately by filtration through Whatman GF/B glass fiber filters (presoaked in 0.5% polyethyleneimine) using a Brandel Cell Harvester. Filters were rinsed three times with 3 ml of ice-cold Krebs-HEPES buffer, transferred to scintillation vials, and 5 ml scintillation cocktail (Research Products International Corp., Mt. Prospect, Ill.) added. […] Binding parameters were determined using the weighted, least squares non-linear regression.

α4β2* nAChRs = α4β2* nAChRs (Rattus norvegicus, UniProt P09483+P12390); conditions: for mode of interaction with the high affinity [^3H]-nicotine binding site (Scatchard analyses): no change in Bmax
Sequence of α4β2* nAChRs (P09483 31-630): as the sequence (P09483 31-630) above
Sequence of α4β2* nAChRs (P12390 25-500): as the sequence (P12390 25-500) above
Description: (§1) Whole brain, excluding cortex and cerebellum, was homogenized in 20 ml of ice-cold buffer, containing (in mM): 2 HEPES, 11.8 NaCl, 0.48 KCl, 0.25 CaCl2 and 0.12 MgSO4, pH 7.5. Homogenate was centrifuged (25,000 g, 15 minutes, 4° C.). Pellets were resuspended in 20 ml of buffer and incubated at 37° C., for ten minutes, cooled to 4° C. and centrifuged (25,000 g, 15 minutes, 4° C.). Pellets were resuspended and centrifuged using the same conditions. Final pellets were stored in assay buffer, containing (in mM): 20 HEPES, 118 NaCl, 4.8 KCl, 2.5 CaCl2, and 1.2 MgSO4) pH 7.5 at −70° C. Upon use, final pellets were resuspended in ˜20 ml assay buffer. […] Control was in the absence of analog. […] Incubations proceeded for 60 minutes at room temperature using 96-well plates and were terminated by harvesting on Unifilter-96 GF/B filter plates presoaked in 0.5% polyethylenimine, using a Packard FilterMate harvester.
(§2) After washing five times with 350 μl ice-cold assay buffer, filter plates were dried (60 minutes, 49° C.), bottom-sealed, and filled with Packard's MicroScint 20 cocktail (40 μl/well). After 60 minutes, filter plates were top-sealed, and radioactivity determined using a Packard TopCount. Protein concentrations were determined using bovine serum albumin as the standard.
(§3) Whole brain was homogenized in 20 ml of ice-cold buffer (in mM: 2 HEPES, 11.8 NaCl, 0.48 KCl, 0.25 CaCl2, and 0.12 MgSO4, pH 7.5). Homogenates were centrifuged (25,000 g, 15 minutes, 4° C.). Pellets were resuspended in 20 ml of buffer and incubated at 37° C., for 10 minutes, cooled to 4° C. and centrifuged (25,000 g, 15 minutes, 4° C.). Pellets were resuspended and centrifuged again using the same conditions. Final pellets were stored at −70° C. in assay buffer (in mM: 20 HEPES, 118 NaCl, 4.8 KCl, 2.5 CaCl2, and 1.2 MgSO4, pH 7.5). Upon use, final pellets were resuspended in ˜20 ml assay buffer. […] Control was in the absence of analog. […] Incubation proceeded for 60 minutes at room temperature using 96-well plates and was terminated by harvesting on Unifilter-96 GF/B filter plates, presoaked in 0.5% polyethylenimine, using a Packard FiterMate harvester. After washing 5× with 350 μl ice-cold assay buffer, filter plates were dried (60 minutes, 49° C.), bottom-sealed, and filled with Packard's MicroScint 20 cocktail (40 μl/well). After 60 minutes, filter plates were top-sealed, and radioactivity determined. Protein concentration was determined using BSA as the standard.

[4] = target: T2, α7-type neuronal nicotinic acetylcholine receptors (Rattus norvegicus, UniProt Q05941); format: binding; conditions: for Ki: read-out: Ki, [^3H]MLA binding
T2 construct: Rat brain was dissected into the whole brain tissue without cortex, striatum and cerebellum; from tissue; host or cells: rat brain (without cortex, striatum, cerebellum) membranes
T2 sequence (Q05941 23-502): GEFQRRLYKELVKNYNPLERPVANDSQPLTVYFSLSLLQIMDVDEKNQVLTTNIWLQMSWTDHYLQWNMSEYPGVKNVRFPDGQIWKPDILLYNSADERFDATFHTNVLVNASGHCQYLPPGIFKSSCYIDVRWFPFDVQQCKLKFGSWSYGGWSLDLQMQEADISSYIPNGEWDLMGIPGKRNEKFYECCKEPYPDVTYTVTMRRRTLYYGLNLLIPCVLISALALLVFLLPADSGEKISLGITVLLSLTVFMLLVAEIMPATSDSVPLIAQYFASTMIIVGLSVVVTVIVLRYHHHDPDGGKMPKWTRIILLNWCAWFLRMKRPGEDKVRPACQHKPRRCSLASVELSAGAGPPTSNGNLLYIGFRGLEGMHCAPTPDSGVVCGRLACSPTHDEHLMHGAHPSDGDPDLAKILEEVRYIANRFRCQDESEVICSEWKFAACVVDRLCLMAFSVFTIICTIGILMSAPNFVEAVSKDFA
Description: Rat brain was dissected into the whole brain tissue without cortex, striatum and cerebellum and was frozen in liquid nitrogen and stored at −70° C. until use.
The brain tissue was homogenized with a Tekmar Polytron (setting 40) in 20 volumes of ice-cold hypotonic buffer (2 mM HEPES, 14.4 mM NaCl, 0.15 mM KCl, 0.2 mM CaCl2 and 0.1 mM MgSO4, pH=7.5). The homogenate was incubated at 37° C. for ten minutes and centrifuged at 25,000×g for 15 minutes at […] The pellet was washed three times more by resuspension in the 20 volumes of the same buffer and centrifugation at the above parameters. The final pellet was stored at −20° C. under 4.6 ml of the incubation buffer and was suspended just before the incubation with radioligand.
[^3H]MLA (25.4 Ci/mmol) was purchased from Tocris Cookson Ltd., Bristol, U.K. Binding was performed in duplicate, in a final volume of 250 μl of the incubation medium, containing 20 mM HEPES, 144 mM NaCl, 1.5 mM KCl, 2 mM CaCl2, 1 mM MgSO4 and 0.05% BSA, pH=7.5. Reaction was initiated by the addition of 100 μl of membrane suspension to the samples containing a desired concentration of test compounds and […] [^3H] MLA (final concentration) and incubated for 2 hours at room temperature. […] The binding reaction was terminated by dilution of samples with 3 ml of ice-cold incubation buffer followed by immediate filtration through presoaked in 0.5% polyethylenimine glass fiber filters (S&S, grade #32) using a Brandel harvester system. Filters were rinsed three times with 3 ml of ice-cold buffer, transferred to scintillation-vials and 4 ml of scintillation cocktail was added. Protein was measured using the Bradford dye-binding procedure with bovine serum albumin as the standard.

[^3H]DA Uptake = [^3H]DA uptake inhibition (Table 11); format: biochemical
[5] = target: nAChR mediating nicotine-evoked [^3H]DA release (α3β2* receptor subtype); format: cell-based, rat; conditions: read-out: IC50, S-(−)-nicotine-evoked [^3H]DA release
Description: Slices were rinsed with 15 mL of fresh buffer and incubated for an additional 30 minutes in fresh buffer containing 0.1 μM [^3H]DA (6 slices/3 ml). Subsequently, slices were rinsed with 15 ml of fresh buffer and transferred to a glass superfusion chamber.
Radioactivity in the superfusate and tissue samples was determined by liquid scintillation spectroscopy. […] Basal [^3H]outflow was calculated from the average of the tritium collected in the two five minute samples just before addition of the bis-alkyl pyridino analog. […] [^3H]Overflow was calculated by subtracting the [^3H]outflow during an equivalent period of prestimulation from the values in samples collected during and after drug exposure. Inasmuch as the radiolabelled compounds were not separated and identified, the tritium collected in superfusate is referred to as either [^3H]outflow or [^3H]overflow, rather than as [^3H]DA.

α7* nAChRs [6] = target: T3, α7* nAChRs (Rattus norvegicus, UniProt Q05941); conditions: read-out: [^3H]MLA Binding Ki
T3 sequence (Q05941 23-502): as above
Description: as §1, §2, §3

[7] = target: blood-brain barrier choline transporter; format: in vivo, rat
Description: Blood-brain barrier choline transporter affinity assays. Quaternary ammonium analogs were evaluated for their ability to inhibit [^3H]-choline uptake into brain providing an indication of the ability of these analogs to interact with the choline transporter. These assays were conducted using the in situ rat brain perfusion method of Takasato, et al., Am. J. Physiol. 1984, 247, 484, as modified by Allen and Smith, J. Neurochem., 2001, 76, 1032. […] Ki values were compared by ANOVA followed by Bonferoni's multiple comparisons test to determine if an analog inhibits [^3H]-choline uptake.
Analog affinity for, and transport by, the blood-brain barrier choline transporter.

α7* nAChRs [8] = target: T3, α7* nAChRs; experiment: biochemical
Description: as §1, §2, §3

[9] = target: T2, α7-type neuronal nicotinic acetylcholine receptors; experiment: biochemical; conditions: rat brain membranes, 2.5 nM [^3H]-MLA; read-out: Ki, [^3H]MLA binding
[10] = read-out: IC50, inhibition of nicotine-evoked [^3H]dopamine release/overflow
[11] = rat striatal membranes, 3 nM [^3H]-nicotine
[12] = read-out: Nicotine-evoked [^3H]DA Overflow IC50, Table 10, mean (standard error)
[13] = read-out: Nicotine-evoked [^3H]DA Overflow IC50, Table 11
[14] = read-out: [^3H]Nicotine Binding Ki, Table 11
[15] = rat brain membranes, […] [^3H]-MLA
[16] = rat striatal slices, nicotine 10 μM
[17] = read-out: apparent Ki, inhibition of [^3H]-choline uptake into brain
[18] = read-out: Nicotine-evoked [^3H]DA Overflow IC50, Table 7, mean (standard error)
[19] = read-out: [^3H]Nicotine Binding Ki, Table 7, mean (standard error)
[20] = Table 8, single inhibitor concentration 10 or 250 μM, mean (standard error), read-out: Ki, affinity for the blood brain barrier choline transporter
[21] = 500 μM choline in perfusion fluid

CCCCCCCCCCCC[n+]1cccc(C)c1.[I-] [NDDPiI]
maximal inhibition (Imax) of nicotine-evoked [^3H]DA overflow [1]: 63%
IC50 [1, 10]: 30 nM
concentration evoking [^3H]DA overflow (intrinsic activity) [2]: ≥ 1.0 µM

N,N′-Dodecane-1,12-diyl-bis-picolinium Dibromide [bPiDDB]
Ki [3, 11]: 33 µM
affinity for nAChR subtype mediating nicotine-evoked [^3H]DA overflow compared to α4β2* and α7* nAChRs [1]: 4-5 orders of magnitude
maximal inhibition (Imax) of nicotine-evoked [^3H]DA overflow [1]: 60%
potency relative to DHβE in inhibiting nicotine-evoked [^3H]DA overflow [1]: approximately 320 fold
IC50 [1, 10]: 5 nM
IC50 [1, 12]: 5 nM
IC50 [1, 13]: 5 ± 3 nM
Ki (α4β2* nAChRs; read-out: [^3H]Nicotine Binding Ki, Table 10, mean (standard error)): 49 µM
Ki (α4β2* nAChRs; [14]): 48.6 ± 17.2 µM
Ki [4, 15]: > 100 µM
Ki ([^3H]DA Uptake): > 100 µM
IC50 [5, 16]: 5 nM
Ki (α7* nAChRs [6]; Table 11): > 100 µM

N,N′-Nonane-1,9-diyl-bis-picolinium Dibromide [bPiNB]
Ki [3]: 66.7 µM
Ki (α4β2* nAChRs; read-out: [^3H]Nicotine Binding Ki): 80 µM
Ki [4]: > 100 µM

CN1CCCC1c1ccc[n+](C)c1 (centres unmarked) [NMNI]
Ki [7, 17]: > 1000 µM

CCCCCCCCCC[n+]1cccc(C2CCCN2C)c1 (centres unmarked) [NDNI]
Ki [3, 11]: 0.11 µM
Ki (α7* nAChRs [8]): > 100 µM
inhibitory activity at the nAChR subtype mediating nicotine-evoked dopamine release [1]: does not exhibit inhibitory activity
Ki (α4β2* nAChRs; [^3H]Nicotine Binding Ki, Table 4, mean (95% confidence interval)): 0.09 µM
Ki (α4β2* nAChRs; affinity for [^3H]-nicotine binding sites): ~0.09 µM
mode of interaction with the high affinity [^3H]-nicotine binding site (Scatchard analyses) (α4β2* nAChRs): competitive manner
IC50 [5, 16]: > 100000 nM
Ki [7, 17]: 27 µM
Ki [9]: > 100 µM

c1ccc2c(c1)ccc[n+]2CCCCCCCCCCCC[n+]1cccc2ccccc21 [bQDDB, N,N′-Dodecane-1,12-diyl-bis-quinolinium Dibromide]
IC50 [1, 13]: 21 ± 10 nM
Ki ([^3H]DA Uptake): 3.86 ± 0.22 µM
IC50 [5, 16]: 20 nM
Ki [9]: 1.57 µM
Ki (α7* nAChRs [6]; Table 11): 1.61 ± 0.21 µM

N,N′-Octane-1,8-diyl-bis-picolinium Diiodide [bPiOI]
Ki [3, 11]: > 100 µM
IC50 [1, 12]: 10 nM
Ki [4, 15]: > 100 µM
IC50 [5, 16]: 10 nM

CN1CCC[C@H]1c1ccc[n+](CCCCCCCCCCCC[n+]2cccc([C@@H]3CCCN3C)c2)c1 [bNDDB, N,N′-Dodecane-1,12-diyl-bis-nicotinium Dibromide]
Ki [3, 11]: 1.43 µM
IC50 [1, 18]: 170 nM
IC50 [1, 13]: 40 ± 20 nM
Ki (α4β2* nAChRs; [19]): 1.95 µM
Ki (α4β2* nAChRs; [14]): 1.95 ± 0.19 µM
Ki ([^3H]DA Uptake): 43.2 ± 14.9 µM
IC50 [5, 16]: 4370 nM

c1ccc2c[n+](CCCCCCCCCCCC[n+]3ccc4ccccc4c3)ccc2c1 [bIQDDB, N,N′-Dodecane-1,12-diyl-bis-isoquinolinium Dibromide]
Ki [3, 11]: > 100 µM
IC50 [1, 13]: 7 ± 3 nM
Ki (α4β2* nAChRs; [14]): 6.1 ± 0.73 µM
Ki ([^3H]DA Uptake): 0.27 ± 0.07 µM
Ki [9]: 12.3 µM
Ki (α7* nAChRs [6]; Table 11): 2.21 ± 0.25 µM

CCCCCC[N+](C)(C)CCO [N-n-Hexylcholine, reference compound]
Ki [7, 20]: 2.2 µM

CCCCCCCC[n+]1cccc([C@@H]2CCCN2C)c1.[I-] [NONI]
mode of interaction with nAChRs mediating nicotine-evoked dopamine release (Schild analysis) [1]: competitive manner
IC50 ([1]; read-out: Nicotine-evoked [^3H]DA Overflow IC50, Table 4, mean (95% confidence interval)): 620 nM
mode of interaction with the high affinity [^3H]-nicotine binding site (Scatchard analyses) (α4β2* nAChRs): competitive manner
Ki [4, 15]: > 100 µM
IC50 [5, 16]: 620 nM
Ki ([7]; rat, in vivo, read-out: apparent Ki, inhibition of [^3H]-choline uptake into brain): 49 µM
decrease of PA for [^3H]-NONI [21]: ~25%
permeability-surface area product (PA) for [^3H]-NONI [21]: 1.24±0.5×10^−3 ml/s/g
uptake (PA) of [^3H]-NONI (5 mM choline in perfusion fluid): 7.55±3.30×10^−4 ml/s/g
permeability-surface area product (PA) for [^3H]-NONI (no inhibitors present, single time point): 1.64±0.37×10^−3 ml/s/g
transfer coefficient value (Kin) for [^3H]-NONI uptake (rat brain, 0-60 seconds, absence of unlabeled NONI): 1.59±0.14×10^−3 ml/s/g
inhibition of [^3H]-NONI brain uptake by unlabeled NONI (unlabeled NONI 250 μM in perfusion fluid, 45 seconds uptake): 46%
Ki (α7* nAChRs [6]; Table 4, mean (95% confidence interval)): 12 µM

N,N′-Hexane-1,6-diyl-bis-picolinium; Diiodide [bPiHxI]
Ki [3]: > 100 µM
IC50 ([1]; read-out: Nicotine-evoked [^3H]DA Overflow IC50): 1660 nM
Ki [4]: > 100 µM
IC50 [5]: 1660 nM

CCCCCCCC[n+]1ccccc1 [N-n-Octylpyridinium iodide]
Ki [7, 20]: 32 µM

CCCC[n+]1cccc(C2CCCN2C)c1 (centres unmarked) [NBNI]
Ki [7, 17]: 777 ± 588 µM

CCCCCCCC[N+](C)(C)CCO [N-n-Octylcholine, reference compound]
Ki [7, 20]: 1.7 µM

[Br-].[Br-].c1cc[n+](CCCCCCCCCCCC[n+]2ccccc2)cc1 [bPDDB, N,N′-Dodecane-1,12-diyl-bis-pyridinium Dibromide]
Ki [3, 11]: 9.14 µM
IC50 [1, 18]: 1000 nM
IC50 [1, 13]: 1000 ± 380 nM
Ki (α4β2* nAChRs; [19]): 9.15 µM
Ki (α4β2* nAChRs; [14]): 9.15 ± 0.17 µM
binding affinity in the [^3H]MLA assay [4]: moderate binding affinity
Ki ([^3H]DA Uptake): > 100 µM
IC50 [5, 16]: 1000 nM
Ki [9]: 35.6 µM
Ki (α7* nAChRs [6]; Table 7, mean (standard error)): 33 µM
Ki (α7* nAChRs [6]; Table 11): 33 ± 4.6 µM
